ChEMBL document CHEMBL5154656, “High-Throughput Screening Platform in Postnatal Heart Cells and Chemical Probe Toolbox to Assess Cardiomyocyte Proliferation” (J Med Chem, 2022)
Active and inactive are the calls of the source. No cut-off for these calls is given here.

Legend:
[1] = Cytotoxicity against mouse Cardiomyocytes assessed as toxicity at 0.33 to 10 uM; format: cell-based; details: cardiac muscle cell, dose 0.33-10 µM
Cardiac muscle cell [2] = experiment: Cytotoxicity against rat Cardiomyocytes assessed as toxicity at 0.33 to 10 uM; format: cell-based; details: dose 0.33-10 µM
Cardiac muscle cell [3] = experiment: Induction of cell proliferation in postnatal day 1 Wistar rat cardiac cells assessed as enhancement cardiomyocyte numbers by measuring alphaAct+; format: functional, cell-based
Cardiac muscle cell [4] = experiment: Induction of cell proliferation in postnatal day 1 Wistar rat cardiac cells assessed as increase in cardiomyocyte numbers by measuring alphaAct+ at 0.33 to 5 uM; format: functional, cell-based; details: dose 0.33-5 µM
Cardiac Muscle Cell [5] = experiment: Induction of cell proliferation in postnatal day 6 mouse cardiac cells assessed as stimulation in pro-prolierative responses; format: functional, cell-based; details: dose 0.33-10 µM, DDE = dose-dependent effect
Cardiac muscle cell [6] = experiment: Induction of cell proliferation in postnatal day 6 rat cardiac cells assessed as stimulation in pro-prolierative responses; format: functional, cell-based; details: dose 0.1-10 µM, DDE = dose-dependent effect
Cardiac muscle cell [7] = experiment: Induction of cell proliferation in postnatal day 6 rat cardiac cells assessed as increase in CM numbers at 0.33 to 5 uM; format: functional, cell-based; details: dose 0.33-5 µM
Cardiac Muscle Cell [8] = experiment: Induction of cell proliferation in postnatal day 1 mouse cardiac cells assessed as increase in CM numbers at 0.33 to 5 uM; format: functional, cell-based; details: dose 0.33-5 µM
Cardiac Muscle Cell [9] = experiment: Induction of cell proliferation in postnatal day 6 mouse cardiac cells assessed as increase in CM numbers at 0.33 to 5 uM; format: functional, cell-based; details: dose 0.33-5 µM
Cardiac muscle cell [10] = experiment: Induction of cell proliferation in postnatal day 6 Wistar rat cardiac cells assessed as enhancement cardiomyocyte numbers by measuring alphaAct+; format: functional, cell-based
Cardiac Muscle Cell [11] = experiment: Induction of cell proliferation in postnatal day 1 CD1 mouse cardiac cells assessed as enhancement in cardiomyocyte numbers by measuring alphaAct+; format: functional, cell-based
Cardiac Muscle Cell [12] = experiment: Induction of cell proliferation in postnatal day 6 CD1 mouse cardiac cells assessed as enhancement in cardiomyocyte numbers by measuring alphaAct+; format: functional, cell-based
Cardiac Muscle Cell [13] = experiment: Induction of cell proliferation in postnatal day 6 CD1 mouse heart assessed as increase in number of cardiomyocyte by measuring mCherry+ cardiomyocyte nuclei at 0.001 to 1 uM; format: functional, cell-based; details: dose 0.001-1 µM, DDE = dose-dependent effect
Cardiac Muscle Cell [14] = experiment: Induction of cell proliferation in postnatal day 6 mouse cardiac cells assessed as increase in total CM nuclei number; format: functional, cell-based
Cardiac Muscle Cell [15] = experiment: Induction of cell proliferation in postnatal day 1 transgenic mouse cardiac cells assessed as increase in percentage of eGFP-anillin-positive cardiomyocytes; format: functional, cell-based
Cardiac Muscle Cell [16] = experiment: Induction of cell proliferation in postnatal day 6 transgenic mouse cardiac cells assessed as increase in percentage of eGFP-anillin-positive cardiomyocytes; format: functional, cell-based
Cardiac Muscle Cell [17] = experiment: Induction of cell proliferation in postnatal day 1 transgenic mouse cardiac cells assessed as increase in total CM nuclei number; format: functional, cell-based
Cardiac Muscle Cell [18] = experiment: Induction of cell proliferation in postnatal day 1 transgenic mouse cardiac cells assessed as increase in bi-nucleation; format: functional, cell-based
Cardiac muscle cell [19] = experiment: Induction of cell proliferation in postnatal day 5 rat cardiac cells assessed as increase in total CM nuclei number; format: functional, cell-based
Cardiac muscle cell [20] = experiment: Induction of cell proliferation in postnatal day 5 rat cardiac cells assessed as increase in nuclear to cytoplasmic YAP ratio for 4 to 24 hrs by immunostaining analysis; format: functional, cell-based; details: time 4-24 hrs
[21] = molecular target: Mitogen-activated protein kinase 14 (Homo sapiens) (UniProt Q16539); experiment: Inhibition of P38alphaMAPK (unknown origin) relative to control; details: concentration not given here
[22] = molecular target: Mitogen-activated protein kinase 11 (Homo sapiens) (UniProt Q15759); experiment: Inhibition of P38betaMAPK (unknown origin) relative to control; details: concentration not given here
Cardiac muscle cell [23] = experiment: Pro-proliferative activity in Wistar rat cardiac cells from P1 early postnatal developmental time points assessed as effect on cell number by measuring alphaAct/Ki67 cardiomyocyte nuclei at 0.33 to 10 uM by DAPI analysis; format: functional, cell-based; details: dose 0.33-10 µM
Cardiac muscle cell [24] = experiment: Pro-proliferative activity in Wistar rat cardiac cells from P6 late postnatal developmental time points assessed as effect on cell number by measuring alphaAct/Ki67 cardiomyocyte nuclei at 0.33 to 10 uM by DAPI analysis; format: functional, cell-based; details: dose 0.33-10 µM
[25] = Cytotoxicity against mouse Cardiomyocytes assessed as toxicity at > 1 uM; format: cell-based; details: cardiac muscle cell
Cardiac muscle cell [26] = experiment: Cytotoxicity against rat Cardiomyocytes assessed as toxicity at > 1 uM; format: cell-based
Cardiac muscle cell [27] = experiment: Induction of cell proliferation in postnatal day 6 rat cardiac cells assessed as increasing in number of cardiomyocytes; format: functional, cell-based; details: dose 0.1-10 µM, DDE = dose-dependent effect

Chain of Mitogen-activated protein kinase 11 (Homo sapiens) (Q15759 whole entry): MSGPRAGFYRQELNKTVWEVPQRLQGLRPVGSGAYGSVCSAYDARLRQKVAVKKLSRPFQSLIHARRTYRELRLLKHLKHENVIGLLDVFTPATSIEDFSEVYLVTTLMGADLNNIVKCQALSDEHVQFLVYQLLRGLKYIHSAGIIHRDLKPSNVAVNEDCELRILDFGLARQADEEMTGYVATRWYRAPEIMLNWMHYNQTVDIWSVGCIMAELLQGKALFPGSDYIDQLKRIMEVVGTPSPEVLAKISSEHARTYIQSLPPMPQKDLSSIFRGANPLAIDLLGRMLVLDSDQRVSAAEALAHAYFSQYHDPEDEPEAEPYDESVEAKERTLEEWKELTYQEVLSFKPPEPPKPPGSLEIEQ
Chain of Mitogen-activated protein kinase 14 (Homo sapiens) (Q16539 whole entry): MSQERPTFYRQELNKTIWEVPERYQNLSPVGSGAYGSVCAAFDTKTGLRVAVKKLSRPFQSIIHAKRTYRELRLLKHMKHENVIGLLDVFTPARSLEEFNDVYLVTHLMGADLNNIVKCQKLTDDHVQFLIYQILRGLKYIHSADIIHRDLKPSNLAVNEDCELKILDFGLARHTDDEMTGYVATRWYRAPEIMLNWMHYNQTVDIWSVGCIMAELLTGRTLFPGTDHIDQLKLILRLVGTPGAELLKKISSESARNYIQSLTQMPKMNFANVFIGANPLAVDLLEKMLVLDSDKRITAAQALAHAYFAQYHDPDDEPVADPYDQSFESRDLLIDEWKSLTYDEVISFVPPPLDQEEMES

With `Cc1c[nH]c(-c2cnc(NCCNc3ccc(C#N)cn3)nc2-c2ccc(Cl)cc2Cl)n1` [LADUVIGLUSIB] the Activity [1] was “Non-Toxic” and the Activity (Cardiac muscle cell [2]) was “Non-Toxic”.

With `COc1nccc(-c2c(-c3ccc(F)cc3)ncn2[C@H]2CC[C@H](O)CC2)n1` the Activity (Cardiac muscle cell [3]) was “Active”, the Activity (Cardiac muscle cell [4]) was “Active” and the Activity (Cardiac Muscle Cell [5]) was “Dde”. For the same compound, the Activity (Cardiac muscle cell [6]) was “Dde”, the Activity (Cardiac muscle cell [7]) was “Active” and the Activity (Cardiac Muscle Cell [8]) was “Active”. The Activity (Cardiac Muscle Cell [9]) was “Active”, the Activity (Cardiac muscle cell [10]) was “Active” and the Activity (Cardiac Muscle Cell [11]) was “Active”. The Activity (Cardiac Muscle Cell [12]) was “Active”, the Activity [1] was “Non-Toxic” and the Activity (Cardiac muscle cell [2]) was “Non-Toxic”.

With `CN1CCN(Cc2ccc(NC(=O)Cc3ccc(Oc4cc(NC(=O)C5CC5)ncn4)cc3)cc2C(F)(F)F)CC1` the Activity (Cardiac Muscle Cell [13]) was “Dde”, the Activity (Cardiac Muscle Cell [14]) was “Active” and the Activity (Cardiac Muscle Cell [15]) was “Active”. For the same compound, the Activity (Cardiac Muscle Cell [16]) was “Active”, the Activity (Cardiac Muscle Cell [17]) was “Active” and the Activity (Cardiac Muscle Cell [18]) was “Active”. For the same compound, the Activity (Cardiac muscle cell [19]) was “Active”, the Activity (Cardiac muscle cell [20]) was “Active” and the Activity [1] was “Non-Toxic”. For the same compound, the Activity (Cardiac muscle cell [2]) was “Non-Toxic”.

With `O=C1c2ccc(Nc3ccc(F)cc3F)cc2CCc2ccc(OC[C@H](O)CO)cc21` the inhibition [21] was 99.8%, the inhibition [22] was 99.8% and the Activity (Cardiac muscle cell [23]) was “Active”. For the same compound, the Activity (Cardiac muscle cell [24]) was “Active”.

In the case of `CN1CCN(Cc2ccc(NC(=O)Nc3ccc(Oc4cc(NC(=O)C5CC5)ncn4)cc3)cc2C(F)(F)F)CC1`, the Activity (Cardiac Muscle Cell [13]) is reported as “Dde”, the Activity (Cardiac Muscle Cell [14]) is reported as “Active” and the Activity (Cardiac Muscle Cell [15]) is reported as “Active”. For the same compound, the Activity (Cardiac Muscle Cell [16]) was “Active”, the Activity (Cardiac Muscle Cell [17]) was “Active” and the Activity (Cardiac Muscle Cell [18]) was “Active”. The Activity (Cardiac muscle cell [19]) was “Active”.

In the case of `O=C(OCCN1CCOCC1)c1ccc2c(c1)C(=O)c1ccc(Nc3ccc(F)cc3F)cc1CC2`, the Activity (Cardiac muscle cell [23]) is reported as “Active” and the Activity (Cardiac muscle cell [24]) is reported as “Active”.

In the case of `CCn1c(=O)[nH]c2ccccc21`, the Activity [25] is reported as “Toxic” and the Activity (Cardiac muscle cell [26]) is reported as “Toxic”.

For `O=C(NCC(O)CO)c1ccc2c(c1)C(=O)c1ccc(Nc3ccc(F)cc3F)cc1CC2` (stereo not drawn), the Activity (Cardiac muscle cell [23]) was “Active” and the Activity (Cardiac muscle cell [24]) was “Active”.

For `Cc1cnc(-c2cnc(NCCNc3ccc(C#N)cn3)nc2-c2ccc(Cl)cc2Cl)[nH]1`, the Activity (Cardiac muscle cell [27]) was “Dde” and the Activity (Cardiac muscle cell [20]) was “Active”.
